# From US8791131B2, “Imidazo[1,5]naphthyridine compounds, their pharmaceutical use and compositions” (Pfizer Inc., priority 2008, dated 2014)
# How the values were obtained:
# PI3-Kα = PI3-Kα (Mus musculus (Mouse), UniProt P42337); assay: PI3-Kα biochemical assay (in vitro kinase assay, fluorescence polarization); settings: Ki calculated from IC50, [ATP]=30 uM, Km=25 uM;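 further: Insect-cell-expressed mouse p110/p85 complex converting PI(4,5)P2, product PI(3,4,5)P3 detected by displacing TAMRA-tagged PI(3,4,5)P3 from Grip1 PH domain, lower polarization means more product, room temperature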
# PI3-Kα, sequence (P42337 whole entry, the tested form may be a part): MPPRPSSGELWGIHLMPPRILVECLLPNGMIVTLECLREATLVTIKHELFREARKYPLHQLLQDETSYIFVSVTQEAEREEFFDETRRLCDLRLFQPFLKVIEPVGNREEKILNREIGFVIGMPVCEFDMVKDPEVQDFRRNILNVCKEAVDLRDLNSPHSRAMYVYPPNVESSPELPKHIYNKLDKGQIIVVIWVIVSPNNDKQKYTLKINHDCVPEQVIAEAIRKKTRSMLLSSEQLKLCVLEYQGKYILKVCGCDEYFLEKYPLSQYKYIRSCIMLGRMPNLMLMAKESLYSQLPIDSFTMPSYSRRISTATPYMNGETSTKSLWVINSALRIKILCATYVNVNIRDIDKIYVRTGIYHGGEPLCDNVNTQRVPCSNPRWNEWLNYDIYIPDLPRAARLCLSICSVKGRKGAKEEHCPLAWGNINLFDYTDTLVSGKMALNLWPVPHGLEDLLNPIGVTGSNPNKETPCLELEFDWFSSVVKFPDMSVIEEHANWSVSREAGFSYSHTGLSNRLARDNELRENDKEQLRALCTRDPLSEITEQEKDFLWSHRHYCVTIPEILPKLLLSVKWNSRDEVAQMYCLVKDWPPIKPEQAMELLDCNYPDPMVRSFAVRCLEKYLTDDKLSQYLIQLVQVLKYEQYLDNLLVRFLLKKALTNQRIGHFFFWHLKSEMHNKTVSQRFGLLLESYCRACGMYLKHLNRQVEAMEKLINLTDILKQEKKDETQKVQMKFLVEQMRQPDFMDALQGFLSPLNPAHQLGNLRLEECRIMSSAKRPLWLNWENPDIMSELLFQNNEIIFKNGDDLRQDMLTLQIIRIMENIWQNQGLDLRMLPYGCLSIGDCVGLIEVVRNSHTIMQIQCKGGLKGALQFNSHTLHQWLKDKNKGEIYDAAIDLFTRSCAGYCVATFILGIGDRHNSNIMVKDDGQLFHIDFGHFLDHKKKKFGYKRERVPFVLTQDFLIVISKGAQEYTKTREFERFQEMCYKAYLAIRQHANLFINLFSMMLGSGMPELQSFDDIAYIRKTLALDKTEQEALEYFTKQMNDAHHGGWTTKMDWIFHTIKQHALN
# PI3-Kα, sequence (P26450 whole entry partner, the tested form may be a part): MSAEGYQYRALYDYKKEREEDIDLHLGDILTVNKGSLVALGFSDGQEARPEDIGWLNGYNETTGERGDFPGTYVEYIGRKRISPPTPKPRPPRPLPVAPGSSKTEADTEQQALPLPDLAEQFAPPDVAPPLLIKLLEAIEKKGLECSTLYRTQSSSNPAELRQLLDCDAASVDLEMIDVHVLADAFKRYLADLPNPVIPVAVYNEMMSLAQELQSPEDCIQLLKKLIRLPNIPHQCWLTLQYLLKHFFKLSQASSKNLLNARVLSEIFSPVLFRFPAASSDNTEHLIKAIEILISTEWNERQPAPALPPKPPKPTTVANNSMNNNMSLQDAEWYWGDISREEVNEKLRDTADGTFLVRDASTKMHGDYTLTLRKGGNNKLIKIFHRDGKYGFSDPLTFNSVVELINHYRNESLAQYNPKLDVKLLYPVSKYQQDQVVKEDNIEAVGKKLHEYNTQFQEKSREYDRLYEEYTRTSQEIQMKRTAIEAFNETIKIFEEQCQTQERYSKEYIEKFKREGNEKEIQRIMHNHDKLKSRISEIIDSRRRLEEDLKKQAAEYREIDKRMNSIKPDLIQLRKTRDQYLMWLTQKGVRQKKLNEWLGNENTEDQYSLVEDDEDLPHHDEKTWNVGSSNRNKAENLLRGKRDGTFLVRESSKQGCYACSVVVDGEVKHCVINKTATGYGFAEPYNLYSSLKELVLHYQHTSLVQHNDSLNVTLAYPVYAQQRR
# mTOR = mTOR (Homo sapiens (Human), UniProt P42345)
# mTOR, sequence (P42345 2156-2469): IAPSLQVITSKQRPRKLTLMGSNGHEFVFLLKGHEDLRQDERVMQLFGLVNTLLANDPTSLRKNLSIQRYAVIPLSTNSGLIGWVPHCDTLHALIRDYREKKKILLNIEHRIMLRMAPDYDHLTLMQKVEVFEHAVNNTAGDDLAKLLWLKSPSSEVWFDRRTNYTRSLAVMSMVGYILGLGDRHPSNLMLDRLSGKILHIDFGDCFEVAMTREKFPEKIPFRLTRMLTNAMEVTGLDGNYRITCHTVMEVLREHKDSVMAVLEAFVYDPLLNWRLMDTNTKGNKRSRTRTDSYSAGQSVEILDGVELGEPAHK
# [1] = tested on: PI3-K (phosphorylation of AKT at serine 473) in BT20 cells; assay: PI3-Kα cellular assay (phospho-AKT Ser473 ELISA in BT20 cells); settings: Homo sapiens, BT-20, 1 h, read-out: S473 pAKT 10% FBS IC50 (μM);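 further: lysates read by ELISA with TMB colour at 450 nm, cells given 0.5% DMSO vehicle serve as positive control and cell-free wells as negative control, duplicate wells per concentration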
Compound,PI3Ka Ki (PI3-Kα) [nM],Ki (mTOR) [nM],IC50 [1] [µM]
"Cc1ccc(-c2ccc3ncc4c(c3n2)n([C@H](C)CO)c(=O)n4C)cn1 [Compound 231, 1-[(1R)-2-hydroxy-1-methylethyl]-3-methyl-8-(6-methylpyridin-3-yl)-1,3-dihydro-2H-imidazo[4,5-c][1,5]naphthyridin-2-one]",13.4,56.2,0.269
"COc1ccc(-c2ccc3ncc4c(c3n2)n([C@H](C)CO)c(=O)n4C)cn1 [Compound 233, 1-[(1R)-2-hydroxy-1-methylethyl]-8-(6-methoxypyridin-3-yl)-3-methyl-1,3-dihydro-2H-imidazo[4,5-c][1,5]naphthyridin-2-one]",8.94,23.8,0.237
"C[C@H](CO)n1c(=O)n(C)c2cnc3ccc(-c4cnc(N)nc4)nc3c21 [Compound 235, 8-(2-aminopyrimidin-5-yl)-1-[(1R)-2-hydroxy-1-methylethyl]-3-methyl-1,3-dihydro-2H-imidazo[4,5-c][1,5]naphthyridin-2-one]",15.5,6.99,0.331
"C[C@H](CO)n1c(=O)n(C)c2cnc3ccc(-c4cccc5[nH]ccc45)nc3c21 [Compound 237, 1-[(1R)-2-hydroxy-1-methylethyl]-8-(1H-indo1-4-yl)-3-methyl-1,3-dihydro-2H-imidazo[4,5-c][1,5]naphthyridin-2-one]",29.6,6.66,0.0553
"C[C@H](CO)n1c(=O)n(C)c2cnc3ccc(-c4cnc5[nH]ncc5c4)nc3c21 [Compound 238, 1-[(1R)-2-hydroxy-1-methylethyl]-3-methyl-8-(1H-pyrazolo[3,4-b]pyridin-5-yl)-1,3-dihydro-2H-imidazo[4,5-c][1,5]naphthyridin-2-one]",0.438,4.44,0.0838
"C[C@@H](CO)n1c(=O)n(C)c2cnc3ccc(-c4cnn(C)c4)nc3c21 [Compound 239, 1-[(1S)-2-hydroxy-1-methylethyl]-3-methyl-8-(1-methyl-1H-pyrazol-4-yl)-1,3-dihydro-2H-imidazo[4,5-c][1,5]naphthyridin-2-one]",102,311,5.04
"COc1ccc(-c2ccc3ncc4c(c3n2)n([C@@H](C)CO)c(=O)n4C)cn1 [Compound 241, 1-[(1S)-2-hydroxy-1-methylethyl]-8-(6-methoxypyridin-3-yl)-3-methyl-1,3-dihydro-2H-imidazo[4,5-c][1,5]naphthyridin-2-one]",4.08,28.7,0.266
"CC(=O)N1CCC(n2c(=O)n(C)c3cnc4ccc(-c5ccc(N)nc5)nc4c32)CC1 [Compound 242, 1-(1-acetylpiperidin-4-yl)-8-(6-aminopyridin-3-yl)-3-methyl-1,3-dihydro-2H-imidazo[4,5-c][1,5]naphthyridin-2-one]",0.252,0.299,0.00917
"CC(=O)N1CCC(n2c(=O)n(C)c3cnc4ccc(-c5ccc(S(C)(=O)=O)cc5)nc4c32)CC1 [Compound 246, 1-(1-acetylpiperidin-4-yl)-3-methyl-8-[4-(methylsulfonyl)phenyl]-1,3-dihydro-2H-imidazo[4,5-c][1,5]naphthyridin-2-one]",24.2,35.3,2.58
"CC(=O)N1CCC(n2c(=O)n(C)c3cnc4ccc(-c5ccnc6[nH]ncc56)nc4c32)CC1 [Compound 251, 1-(1-acetylpiperidin-4-yl)-3-methyl-8-(1H-pyrazolo[3,4-b]pyridin-4-yl)-1,3-dihydro-2H-imidazo[4,5-c][1,5]naphthyridin-2-one]",0.811,4.63,0.14
"C[C@H](O)C(=O)N1CCC(n2c(=O)n(C)c3cnc4ccc(-c5ccnc6[nH]ncc56)nc4c32)CC1 [Compound 253, 1-{1-[(2S)-2-hydroxypropanoyl]piperidin-4-yl}-3-methyl-8-(1H-pyrazolo[3,4-b]pyridin-4-yl)-1,3-dihydro-2H-imidazo[4,5-c][1,5]naphthyridin-2-one]",1.04,1.69,0.218
"Cn1c(=O)n(C2CCN(C(=O)CO)CC2)c2c3nc(-c4cccc5[nH]ncc45)ccc3ncc21 [Compound 256, 1-(1-glycoloylpiperidin-4-yl)-8-(1H-indazol-4-yl)-3-methyl-1,3-dihydro-2H-imidazo[4,5-c][1,5]naphthyridin-2-one]",0.575,1.97,0.0604
"C[C@@H](O)C(=O)N1CCC(n2c(=O)n(C)c3cnc4ccc(-c5cnc6[nH]ncc6c5)nc4c32)CC1 [Compound 258, 1-{1-[(2R)-2-hydroxypropanoyl]piperidin-4-yl}-3-methyl-8-(1H-pyrazolo[3,4-b]pyridin-5-yl)-1,3-dihydro-2H-imidazo[4,5-c][1,5]naphthyridin-2-one]",0.11,0.241,0.0294
"COCC(=O)N1CCC(n2c(=O)n(C)c3cnc4ccc(-c5cnc6[nH]ncc6c5)nc4c32)CC1 [Compound 260, 1-[1-(methoxyacetyl)piperidin-4-yl]-3-methyl-8-(1H-pyrazolo[3,4-b]pyridin-5-yl)-1,3-dihydro-2H-imidazo[4,5-c][1,5]naphthyridin-2-one]",0.167,0.323,0.0153
"Cn1c(=O)n(C2CCN(C(=O)C(C)(C)O)CC2)c2c3nc(-c4cnc5[nH]ncc5c4)ccc3ncc21 [Compound 261, 1-[1-(2-hydroxy-2-methylpropanoyl)piperidin-4-yl]-3-methyl-8-(1H-pyrazolo[3,4-b]pyridin-5-yl)-1,3-dihydro-2H-imidazo[4,5-c][1,5]naphthyridin-2-one]",0.114,0.658,0.00991
"Cn1c(=O)n(C2CCN(C(=O)CO)CC2)c2c3nc(-c4cnc5[nH]ncc5c4)ccc3ncc21 [Compound 262, 1-(1-glycoloylpiperidin-4-yl)-3-methyl-8-(1H-pyrazolo[3,4-b]pyridin-5-yl)-1,3-dihydro-2H-imidazo[4,5-c][1,5]naphthyridin-2-one]",0.32,4.06,0.0594
"CN1CCC(n2c(=O)n(C)c3cnc4ccc(-c5cnc6[nH]ncc6c5)nc4c32)CC1 [Compound 263, 3-methyl-1-(1-methylpiperidin-4-yl)-8-(1H-pyrazolo[3,4-b]pyridin-5-yl)-1,3-dihydro-2H-imidazo[4,5-c][1,5]naphthyridin-2-one]",0.282,5.67,0.0218
"CCNC(=O)Nc1ccc(-c2ccc3ncc4c(c3n2)n(C2CCN(C(=O)OC(C)(C)C)CC2)c(=O)n4C)cc1 [Compound 265, tert-butyl 4-(8-{4-[(ethylcarbamoyl)amino]phenyl}-3-methyl-2-oxo-2,3-dihydro-1H-imidazo[4,5-c][1,5]naphthyridin-1-yl)piperidine-1-carboxylate]",5.02,14.4,0.0399
"COc1ccc(-c2ccc3ncc4c(c3n2)n(CCN2CCNCC2)c(=O)n4C)cn1 [Compound 266, 8-(6-methoxypyridin-3-yl)-3-methyl-1-(2-piperazin-1-ylethyl)-1,3-dihydro-2H-imidazo[4,5-c][1,5]naphthyridin-2-one]",7.8,273,0.344
